Test results taken from patent US20070129411A1, “Treatment of proliferative diseases with epothilone derivatives and radiation” (priority 2003, published 2007).
“Also recorded” adds a separate entry of the source.

Tests used:
[1] = tested on: E1A/ras transformed p53-/- MEF; assay type: cell-based, murine; settings: for proliferative activity, drug alone / proliferative activity, drug in combination with ionizing radiation: murine fibrosarcoma cell line, low nanomolar range, comparable extent for both drugs
Experimental: (§1) Tumor cell proliferation was assessed by the calorimetric MTT-like alamarBlue assay that is based on detection of metabolite activity. To determine clonogenic survival the number of singular cells plated was adjusted to obtain about 100 colonies per dish with a given treatment. After 24 h exposure to the different drugs cells were irradiated and then allowed to grow for 8 to 10 days before fixation In methanol/acetic acid (75%/25%) and staining with crystal violet. Only colonies with more than 50 cells/colony were counted. The plating efficiency (PE) of untreated cells was determined and calculated as PE (%)=(scored colonies/number of plated cells)×100. The surviving fraction (SF) with a given treatment was determined by SF=(scored colonies)/(number of plated cells×PE/100). […] Irradiation of cell cultures was carried out at RT in tissue culture dishes (100×100 mm) or in 96-well plates using a Pantak Therapax […] X-ray unit at 0.7 Gy/min. Dosimetry was controlled with a Vigilant-dosimeter.
(§2) Initial proliferation assays were performed to determine the dose range of epothilone B to be applied for combined treatment with ionizing radiation. […] For this combined treatment modality cells were pretreated for 24 h with epothilone B prior to irradiation.

[2] = tested on: E1A/ras-transformed MEFs; test: clonogenic survival assay, E1A/ras-transformed MEF; assay type: cell-based, murine; settings: 24 h drug exposure then irradiation
Experimental: (§3) Tumor cell proliferation was assessed by the calorimetric MTT-like alamarBlue assay that is based on detection of metabolite activity. To determine clonogenic survival the number of singular cells plated was adjusted to obtain about 100 colonies per dish with a given treatment. After 24 h exposure to the different drugs cells were irradiated and then allowed to grow for 8 to 10 days before fixation In methanol/acetic acid (75%/25%) and staining with crystal violet. Only colonies with more than 50 cells/colony were counted. The plating efficiency (PE) of untreated cells was determined and calculated as PE (%)=(scored colonies/number of plated cells)×100. The surviving fraction (SF) with a given treatment was determined by SF=(scored colonies)/(number of plated cells×PE/100). Clonogenic assays were performed at least twice and absence of error bars is due to minimal standard deviations. Irradiation of cell cultures was carried out at RT in tissue culture dishes (100×100 mm) or in 96-well plates using a Pantak Therapax […] X-ray unit at 0.7 Gy/min. Dosimetry was controlled with a Vigilant-dosimeter.
(§4) The clonogenic assay is based on the outgrowth of compact clones from singular cells that are seeded at low density in a petri dish. Clonal outgrowth under the different treatment conditions can be quantified and compared.

[3] = tested on: human colon adenocarcinoma cell line SW480; test: alamarBlue tumor cell proliferation assay, SW480; assay type: cell-based
Experimental: as §1, §2

[4] = tested on: SW480; test: clonogenic survival assay, SW480; assay type: cell-based, human
Experimental: as §3, §4

Row | SMILES | proliferative activity, drug alone [1] | proliferative activity, drug in combination with ionizing radiation [1] | clonogenic survival, combined treatment with ionizing radiation [2] | proliferation, response to drug ([3]; SW480, doses up to 500 nM) | clonogenic survival, combined treatment with ionizing radiation ([4]; Paclitaxel-resistant SW480, only at very high concentrations of Paclitaxel) | antiproliferative effect of combined treatment with ionizing radiation ([1]; E1A/ras transformed p53-/- MEF, ionizing radiation 5Gy, 24 h drug pretreatment prior to irradiation) | antiproliferative dose response, drug alone ([1]; E1A/ras transformed p53-/- MEF, over 72 hours, without irradiation) | antiproliferative effect of combined treatment with ionizing radiation ([3]; SW480, ionizing radiation 5Gy, 24 h drug pretreatment prior to irradiation) | antiproliferative dose response, drug alone ([3]; SW480, over 72 hours, without irradiation) | clonogenic survival, combined treatment with ionizing radiation ([4]; SW480, 24 h drug exposure then irradiation) | clonogenic survival, sensitivity of SW480 relative to MEFs ([4]; SW480 compared with E1A/ras-transformed MEFs)
1 | CC(=O)O[C@H]1C(=O)[C@@]2(C)[C@H]([C@H](OC(=O)c3ccccc3)[C@]3(O)C[C@H](OC(=O)[C@H](O)[C@@H](NC(=O)c4ccccc4)c4ccccc4)C(C)=C1C3(C)C)[C@]1(OC(C)=O)CO[C@@H]1C[C@@H]2O [Paclitaxel, reference compound] | reduced the proliferative activity | reduced the proliferative activity | at least additive effect | refractory | at least additive effect | – | – | – | – | – | –
2 | C/C(=C\c1csc(C)n1)[C@@H]1C[C@@H]2O[C@]2(C)CCC[C@H](C)[C@H](O)[C@@H](C)C(=O)C(C)(C)[C@@H](O)CC(=O)O1 [epothilone B] | reduced the proliferative activity | reduced the proliferative activity | at least additive effect | – | – | at least additive antiproliferative effect | subnanomolar and low nanomolar range | at least additive antiproliferative effect; also recorded: retains full activity | subnanomolar and low nanomolar range; also recorded: enhanced sensitivity; also recorded: retains full activity | at least additive effect | more sensitive
